{
  "source": "patent US20240216444A1",
  "about": "“DESIGNED BACTERIAL COMPOSITIONS” (Seres Therapeutics, Inc., priority 2015, published 2024)",
  "key": {"[1]": {"tested_on": "bile salt hydrolase (BSH) activity on conjugated bile acids", "test": "LC-MS screen for bile salt hydrolase (BSH) activity", "procedure": "To conduct the assay, briefly, bacteria were grown on permissive agar media plates for 24 to 48 hours to generate sufficient biomass to carry out assays. The bacterial lawns were resuspended in PBS to create a homogenous suspension that was then used for the BSH assay. To assay for BSH activity, bacterial suspensions were incubated with two separate mixtures of four distinct conjugated bile acids, each at concentration of 150 μg/ml, for 4 hours at 37° C. under anaerobic conditions. The reaction mixture was then extracted with an equal volume of acetonitrile, spun down to pellet bacteria and the supernatant filtered through a 0.2 μM filter to generate a sample for LC-MS analysis. Bile acids were determined using an Agilent 1260 HPLC coupled to a Bruker Compact qTOF MS. Samples were run on a bidentate C18 column using an acetonitrile:water buffer system to separate bile acids which were then ionized in negative mode and identified using a qTOF-MS. BSH activity was determined by the formation of deconjugated bile acid products that were verified by comparison to known standards and quantified, if necessary, using standard curves."}, "[2]": {"tested_on": "HDAC enzymes (HeLa nuclear extract)", "test": "HDAC inhibition activity in supernatants of cultures grown in different carbon sources", "details": "25% HDAC inhibition as cut off", "procedure": "To determine whether the HDAC inhibition was affected by the type and level of carbon source available to a bacterial species, HDAC inhibition by supernatants derived from a selection of bacterial species used in DBCs was determined. In these experiments, bacteria were grown in a variety of carbon sources including mono-, di-, polysaccharides, and porcine mucine. Briefly, 600 μL bacterial cultures in peptone/yeast extract medium (PY) supplemented with 0.5% of the selected carbon sources were inoculated in 96 deep well plates, grown for 4 days, then the microbial cells were pelleted by centrifugation, and 15 μL of the culture medium (supernatant) was used for the HDAC assay with HeLa nuclear extract as described above. Because HDAC activity is reduced at low pH (Latham et al. 2012 Nucl Acid Res 40:4794-803) and the microbial cultures had pH as low as 5, to ensure that the final pH of the assay was not reduced by the addition of supernatant, 10 μL of a 1M Tris pH 8 solution was added per well to bring the final Tris buffer concentration to 75 mM. Thus, assays were performed with 15 μL supernatant, 10 μL 1M Tris pH 8, 25 μL of assay buffer and 50 μL of diluted HeLa nuclear extract, which were preincubated for 30 minutes prior to the addition of developing reagent. Luminescence was measured after 30 minutes."}, "[3]": {"tested_on": "HSDH activity (7-, 3- or 12-hydroxyl groups) on cholic, chenodeoxycholic, deoxycholic and lithocholic acid", "test": "LC-MS screen for hydroxysteroid dehydrogenase (HSDH) activity", "assay_type": "biochemical", "details": "LC-MS"}, "[4]": {"tested_on": "C. difficile carbon sources", "test": "Carbon source utilization, 87 carbon sources in three base media, OD600 and acid production (Example 3B)", "assay_type": "cell-based", "design": "key: “+” and “w” refer to “positive” and “weak” utilization of the carbon source, respectively; “+” and “w” refer to “positive” and “weak” utilization of the carbon source, respectively", "text": "Three C. difficile strains and 12 non-C. difficile bacterial strains were profiled using a panel of carbon sources. As used herein, unless otherwise indicated, carbon sources includes all sources tested as growth substrates in the experiments herein. The three C. difficile strains were Clostridium difficile ATCC 9689, Clostridium difficile ATCC 43593, and Clostridium difficile ATCC 43255, all of which are available from the American Type Culture Collection (ATCC).\nGrowth of the strains was tested on 87 different carbon sources in a 96-well plate format. The panel contained 34 carbon sources reported to be utilized by C. difficile in the literature (Hafiz and Oakley. 1976 J Med Microbiol 9:129-36; Wilson and Perini. 1988 Infection and Immunity 56:2610-14; Bergey and Holt. Bergey's Manual of Determinative Bacteriology. Baltimore: Williams & Wilkins, 1994; Sebaihia et al. 2006 Nature Genetics 38:779-786) including amino acids, mono-, di-, tri- and polysaccharides, glucoside and sugar alcohols. Carbon sources were added at 0.5% into three different base media (Base medium 1 SSNC composition: beef extract 1 g/L, yeast extract 2 g/L, bacto soytone 6 g/L, NaCl 4 g/L, KH2PO4 5.44 g/L, MgSO4 2 mM, CaCl2 1 mM, MnCl2 0.1 mM, cysteine hydrochloride 0.25 g/L, hemin 10 mg/L, menadione 1 mg/L, MOPS 6.3 g/L, pH 7; Base medium 2 SPOSCR composition: beef extract 1 g/L, yeast extract 2 g/L, bacto soytone 6 g/L, NaCl 4 g/L, KH2PO4 5.44 g/L, MgSO4 2 mM, CaCl2) 1 mM, MnCl2 0.1 mM, cysteine hydrochloride 0.25 g/L, hemin 10 mg/L, menadione 1 mg/L, MOPS 8.4 g/L, NaHCO3 0.4%, pH 7; Base medium 3 YCFA: casitone 10 g/L, yeast extract 2.5 g/L, cysteine hydrochloride 1 g/L, hemin 10 mg/L, ATCC vitamin solution 10 mL/L, ATCC trace element solution 10 mL/L, K2HPO4 0.45 g/L, KH2PO4 0.45 g/L, (NH4)2SO4 0.9 g/L, MgSO4×7H2O 90 mg/L, CaCl2) 90 mg/L, acetic acid 33 mM, propionic acid 9 mM, isobutyric acid 1 mM, isovaleric acid 1 mM, valeric acid 1 mM, pH 7).\nPositive growth was scored by measuring optical density at 600 nm and comparing it to growth in base medium without an added carbon source. For two, base media acid production was also scored by measuring optical density at 558 nm of pH-indicator phenol red mixed with spent medium from each culture."}, "[5]": {"tested_on": "7α-dehydroxylation of cholic acid and chenodeoxycholic acid", "test": "LC-MS screen for 7α-dehydroxylation (7α-OH) activity", "assay_type": "biochemical", "details": "LC-MS"}, "[6]": {"test": "SCFA profile of bacterial culture supernatants by GC-MS", "details": "GC-MS of culture supernatants", "text": "The same bacterial culture supernatants used for HDAC inhibition assays described supra were submitted to GC-MS analysis to determine which SCFAs underlie the observed inhibition of HDAC. The method employed (MSOmics, Denmark) measures formate, acetate, propionate, butyrate, isobutyrate (2-methyl-propionate), isovalerate (3-methyl-butyrate), valerate (pentanoate), 4-methyl-pentanoate, caproate (hexanoate), and heptanoate. […] Numbers in Table 11 indicate detected SCFA concentration. B=butyrate; P=propionate; IB=isobutyrate, and IV=isovalerate."}, "[7]": {"tested_on": "bile salt hydrolase (BSH) activity on conjugated bile acids (gCA, tCA, gCDCA, tCDCA)", "test": "Bile salt hydrolase (BSH) activity screen using TLC", "assay_type": "biochemical"}},
  "data": [
    {"substance": "Clostridium glycolicum", "values": [
      {"measurement": "BSH gCA", "setting": "[1]; substrate gCA", "result": "+ (‘+’ indicates greater than 50-fold increase in levels of product bile acid, suggesting strong activity)"},
      {"measurement": "BSH gCDCA", "setting": "[1]; substrate gCDCA", "result": "+ (‘+’ indicates greater than 50-fold increase in levels of product bile acid, suggesting strong activity)"},
      {"measurement": "BSH t-aMCA", "setting": "[1]; substrate t-aMCA", "result": "+ (‘+’ indicates greater than 50-fold increase in levels of product bile acid, suggesting strong activity)"},
      {"measurement": "BSH t-bMCA", "setting": "[1]; substrate t-bMCA", "result": "+ (‘+’ indicates greater than 50-fold increase in levels of product bile acid, suggesting strong activity)"},
      {"measurement": "BSH tCA", "setting": "[1]; substrate tCA", "result": "+ (‘+’ indicates greater than 50-fold increase in levels of product bile acid, suggesting strong activity)"},
      {"measurement": "BSH tCDCA", "setting": "[1]; substrate tCDCA", "result": "+ (‘+’ indicates greater than 50-fold increase in levels of product bile acid, suggesting strong activity)"},
      {"measurement": "HDAC inhibition when alternative nutrient sources are tested", "setting": "[2]", "result": "positive"},
      {"measurement": "HSDH 3a", "setting": "[3]", "result": "+ (‘+’ indicates greater than 50-fold increase in levels of product bile acid, suggesting strong activity)"},
      {"measurement": "HSDH 7a", "setting": "[3]", "result": "+ (‘+’ indicates greater than 50-fold increase in levels of product bile acid, suggesting strong activity)"},
      {"measurement": "HSDH 12a", "setting": "[3]", "result": "−"},
      {"measurement": "utilization of carbon source Citrus pectin", "setting": "[4]; Citrus pectin", "result": "+"},
      {"measurement": "utilization of carbon source NAG", "setting": "[4]; NAG (N-acetylglucosamine)", "result": "+"},
      {"measurement": "utilization of carbon source alanine", "setting": "[4]; alanine", "result": "w"},
      {"measurement": "utilization of carbon source arginie", "setting": "[4]; arginie", "result": "w"},
      {"measurement": "utilization of carbon source aspartic acid", "setting": "[4]; aspartic acid", "result": "+"},
      {"measurement": "utilization of carbon source formate", "setting": "[4]; formate", "result": "+"},
      {"measurement": "utilization of carbon source fructose", "setting": "[4]; fructose", "result": "+"},
      {"measurement": "utilization of carbon source glucose", "setting": "[4]; glucose", "result": "+"},
      {"measurement": "utilization of carbon source glycogen", "setting": "[4]; glycogen", "result": "w"},
      {"measurement": "utilization of carbon source guar", "setting": "[4]; guar", "result": "w"},
      {"measurement": "utilization of carbon source isoleucine", "setting": "[4]; isoleucine", "result": "+"},
      {"measurement": "utilization of carbon source leucine", "setting": "[4]; leucine", "result": "+"},
      {"measurement": "utilization of carbon source ornithine", "setting": "[4]; ornithine", "result": "w"},
      {"measurement": "utilization of carbon source polygalacturonate", "setting": "[4]; polygalacturonate", "result": "+"},
      {"measurement": "utilization of carbon source propanediol", "setting": "[4]; propanediol", "result": "w"},
      {"measurement": "utilization of carbon source ribose", "setting": "[4]; ribose", "result": "+"},
      {"measurement": "utilization of carbon source serine", "setting": "[4]; serine", "result": "+"},
      {"measurement": "utilization of carbon source sialic acid", "setting": "[4]; sialic acid", "result": "w"},
      {"measurement": "utilization of carbon source threonine", "setting": "[4]; threonine", "result": "+"},
      {"measurement": "utilization of carbon source tryptophan", "setting": "[4]; tryptophan", "result": "+"},
      {"measurement": "utilization of carbon source valine", "setting": "[4]; valine", "result": "+"},
      {"measurement": "utilization of carbon source α-ketoglutarate", "setting": "[4]; α-ketoglutarate", "result": "+"},
      {"measurement": "7a Dehydrox CA", "setting": "[5]; substrate CA", "result": "−"},
      {"measurement": "7a Dehydrox CDCA", "setting": "[5]; substrate CDCA", "result": "−"},
      {"measurement": "indole test", "setting": "12 strains, eight carbon sources", "result": "positive"},
      {"measurement": "colour of culture in indole test", "setting": "F. plautii: each of the 8 carbon sources, C. glycolicum: all C-sources except glucose, pectin, FOS/inulin", "result": "turned red"},
      {"measurement": "SCFAs produced", "setting": "[6]", "result": "produced isovalerate, isobutyrate and propionate"},
      {"measurement": "BSH activity on gCDCA by TLC", "setting": "[7]", "result": "no BSH activity"}
    ]}
  ]
}
